In patent US9994824B2, “Method for promoting hair growth using composition comprising PDGF-D treated adipose-derived stem cells” (INDUSTRY-ACADEMIC COOPERATION FOUNDATION, YONSEI UNIVERSITY, priority 2015, dated 2018):

How the values were obtained:
[1] = system: SERPINE1; assay: SERPINE1 mRNA expression (PCR array, qPCR); assay type: cell-based, human; conditions: PDGF-D-treated ASCs plus inhibitor
Description: (§1) In this example, PDGF-D target genes were examined using a human signaling pathwayfinder RT^2 profiler PCR array (signaling pathway: PAHS-041ZD).
(§2) 2.5×10^5 of ASCs were seeded on 60-mm dishes, cultured in a 0.2% FBS-containing α-MEM medium, and treated with PDGF-D for 4-24 hours. Afterward, total RNA was extracted using an RNA extraction kit (RNeasy, Qiagen), cDNA was synthesized from 500 ng of total RNA by a cDNA synthesis kit (A3500, Promega) using 1,000 U reverse transcriptase and 50 ng/μl oligo(dT) primers. Gene expression was detected by a PCR array kit (Qiagen) according to the manufacturer's instructions, and qPCR was performed on a step one plus real-time PCR system (Applied Biosystems, Invitrogen) using a SYBR Green PCR master mix (Takara Bio, Japan).

[2] = system: ROS generation in ASCs; assay: intracellular ROS generation using DCF-DA; assay type: cell-based, human; conditions: PDGF-D-treated ASCs plus inhibitor
Description: ROS generation in cells were measured by a method using DCF-DA (Molecular probe, USA) (Kim et al., Stem Cells Dev 21:2212-2221, 2012; Kim et al., Stem Cells Dev 20:1753-1761, 2011), and mitochondrial ROS generation was measured using Mito-Sox (Molecular probe, USA). ASCs were seeded on 60-mm dishes, treated with PDGF-D (10 ng/ml) and 5 μM Mito-Sox and incubated in a dark place for 2 hours, and then flow cytometry was performed.

[3] = system: BCL2A1; assay: BCL2A1 mRNA expression (PCR array, qPCR); assay type: cell-based, human; conditions: PDGF-D-treated ASCs plus inhibitor
Description: as §1, §2

[4] = system: mitochondria of ASCs; assay: mitochondrial fission (MitoTracker Red, confocal microscope); assay type: cell-based, human; conditions: PDGF-D-treated ASCs plus inhibitor
Description: ASCs were seeded on a round cover glass and treated with PDGF-D (10 ng/ml) for 24 hours. For mitochondrial staining, 500 nM MitoTracker Red (Molecular Probe, USA) was added to an α-MEM medium, and cells were incubated for 30 minutes, and then the morphology of mitochondria and MitoTracker Red fluorescence were examined using a confocal microscope (Carl Zeiss). In addition, for nuclear staining, cells were fixed with 4% paraformaldehyde for 15 minutes, permeabilized with 0.5% PBS-T for 5 minutes, and stained with DAPI (Sigma, USA) at room temperature for 10 minutes.

[5] = system: ASCs; assay: cell proliferation assay (CCK-8 cell numbers); assay type: cell-based, human; conditions: for proliferation of ASCs increased by PDGF-D, effect of inhibitor: inhibitor treatment of PDGF-D-treated ASCs
Description: (§3) Human ASCs were obtained from a subcutaneous fat by liposuction according to a known method (Kim et al. J Dermatol Sci 53:96-102, 2009). ASCs were cultured in an α-MEM medium (Hyclone, Thermo Scientific) with 10% FBS (GIBCO, Invitrogen) and 1% penicillin/streptomycin (GIBCO) at 37° C. in 5% CO2, and cells at 7-9 passages were used. Positive expression of CD44, CD73, CD90, CD105, HLA-1 and PODXL and negative expression of CD34 and CD45 were examined by flow cytometry (Kim et al. Cell Death Dis 4:e588, 2013; Kim et al., Cell Biol Int 38:32-40, 2014), and multipotent differentiation potential for the cells to differentiate into adipocytes, osteocytes and cartilage cells was examined (Song et al. Stem Cells Dev 17:451-461, 2008).
For cell proliferation assay, 7×10^3 of ASCs were seeded on 48-well plates, 24 hours later, a medium was transferred with a 0.2% FBS-containing α-MEM medium, and the following day, cells were treated with PDGF isoforms (10 ng/ml) for 48 hours. Afterward, the medium was removed, the cells were treated with a 10% CCK-8 solution for 2 hours using a CCK-8 assay kit (Dojindo, Japan), and the absorbance was measured at 450 nm, to examine cell numbers.

[6] = system: ASCs; assay: cell migration assay (trans-well); assay type: cell-based, human; conditions: for migration of ASCs increased by PDGF-D, effect of inhibitor: inhibitor treatment of PDGF-D-treated ASCs
Description: as §3
Also, for cell migration assay, 2×10^4/well of ASCs were seeded on the upper portion of a trans-well membrane plate (Corning, USA). After 2 hours, PDGF isoforms (10 ng/ml) and an α-MEM medium with 0.2% FBS were introduced to the lower portion of the trans-well membrane plate to culture the PDGF isoforms for 16 to 20 hours. Afterward, cells migrated to the trans-well membrane were fixed with cold ethanol for 20 minutes, and stained with 10% crystal-violet (Sigma, USA) at room temperature for 30 minutes.

[7] = system: growth factors VEGFA, FGF1, FGF5, BMP8B, LIF, INHBA, IL11 and HBEGF; assay: growth factor expression (RT2 profiler PCR array of human growth factor, qPCR); assay type: cell-based
Description: Then, the paracrine effect of PDGF families was examined using an RT^2 profiler PCR array of a human growth factor (growth factor pathway: PAHS-041ZA).
The growth factor expression was measured by an RT^2 profiler PCR array (FIG. 9A).

Molecule | SERPINE1 expression, effect of inhibitor [1] | DCF-DA fluorescence, effect of inhibitor/scavenger [2] | BCL2A1 expression, effect of inhibitor [3] | proliferation of ASCs increased by PDGF-D, effect of inhibitor [5] | migration of ASCs increased by PDGF-D, effect of inhibitor [6] | also measured
COCCOc1ccc2c(c1)ncn2-c1ccc2cccc(N3CCC(N)CC3)c2n1 [cp673451] | decreased | considerably decreased | decreased |  |  | 
COc1cc(-n2c(=S)[nH]c3ccccc3c2=O)c(Cl)cc1Cl [Mdivi-1] |  |  |  | considerably decreased | considerably decreased | mitochondrial fission induced by PDGF-D treatment, effect of inhibitor [4]: decreased
N#CC(=C(/N)Sc1ccccc1N)/C(C#N)=C(\N)Sc1ccccc1N [U0126] |  |  |  | not influenced | not influenced | expression of a growth factor induced by PDGF-D, effect of inhibitor (PCR array) ([7]; 10 μM inhibitor, RT2 profiler PCR array): inhibited; expression of the growth factor induced by PDGF-D, effect of inhibitor (qPCR) ([7]; qPCR): inhibited
CC1(C)CC(C(=O)OCCCCCCCCCC[P+](c2ccccc2)(c2ccccc2)c2ccccc2)C(C)(C)N1O (stereo not drawn) [Mito-CP] | considerably decreased | considerably decreased | no influence | considerably decreased | considerably decreased | 
S=C(S)N1CCCC1 [PDTC] |  |  | decreased |  |  | 
PDGF-B: PDGF isoform growth factor protein, purchased from Sigma (protein, UniProt P01127 82-190, looked up) Platelet-derived growth …: SLGSLTIAEPAMIAECKTRTEVFEISRRLIDRTNANFLVWPPCVEVQRCSGCCNNRNVQCRPTQVQLRPVQVRKIEIVRKKPIFKKATVTLEDHLACKCETVAAARPVT |  |  |  |  |  | cell proliferation (cell numbers) ([5]; PDGF isoforms 10 ng/ml, 48 hours, 0.2% FBS α-MEM): considerably enhanced twice or more; cell migration ([6]; PDGF isoforms 10 ng/ml, 16 to 20 hours, 0.2% FBS α-MEM): considerably enhanced twice or more
